In patent US9267021B2 (KOSSAN SDN BHD, priority 2010, dated 2016):
Where “and” joins values, the source holds several entries; their conditions need not be identical. Identical values can stand only once. Like-named read-outs stand apart in the source and are kept apart here.

How the values were obtained:
guinea pig = conditions: for erythema evaluation point, individual animal: group IV sensitized with DNCB; for ave. eval. (average of evaluation point) / positive ratio: positive comparison group IV sensitized with DNCB 0.1 w/v %
Experimental: Skin-Sensitize Test (Maximization Test)
This test is carried out by Juridical Foundation “Food and Medicine Safety Center” (Hatano-shi, Kanagawa) based on “Basic view about biological safety test necessary for petition of recognition of production (import) of medical device” (13.02.2003, Consideration of Medicine No. 0213001″ and “Reference materials regarding basic view of biological safety test” (19.03.2003, Examination of medical device No. 36).
Using methanol extraction of Verte Kimax 7th Sense, biological safety evaluation is obtained. And aiming to compare with Verte 710N, skin-sensitize test (maximization test) is carried out on a guinea pig using methanol extraction of Verte Kimax 7th Sense.
At the preparation of prescribing subject, methanol extract of Verte Kimax 7th Sense (hereinafter, shortened to 7th Sense-M) or methanol extract of Verte 710N (hereinafter, shortened to 710N-M) is suspended in ethanol by proportion of 1 mL to the extract obtained 1 g of analyte used for extraction, and 100 v/v % 7th Sense-M ethanol suspension and 100 v/v % 710N-M ethanol suspension are obtained. Further, BLANK obtained from methanol alone is poured into same amount of ethanol as used at the preparation of suspension of 7th Sense-M or 710N-M and 100 v/v % blank suspensions are prepared. In first skin-sensitize test, 100 v/v % 7th Sense-M ethanol suspension and 100 v/v % 710N-M ethanol suspension are replaced with same amount of olive oil, and 100 v/v % 7th Sense-M olive oil suspension and 100 v/v % 710N-M olive oil suspension are prepared. In second skin-sensitize test, 100 v/v % 7th Sense-M ethanol suspension and 100 v/v % 710N-M ethanol suspension are replaced with same amount of olive oil, and 100 v/v % 7th Sense-M olive oil suspension and 100 v/v % 710N-M olive oil suspension are prepared. In causing, 100 v/v % 7th Sense-M ethanol suspension and 100 v/v % 710N-M ethanol suspension are prepared by adding ethanol as stepwise. Further, 100 v/v % corresponding volume blank ethanol solution is used as is.
In first skin-sensitize test (treatment first day) 10 v/v % 7th Sense-M olive oil suspension or 10 v/v % 710N-M olive oil suspension and Freund's complete adjuvant are injected by intradermal injection in upper part of shoulder bone of a guinea pig. At 7 days after treatment, 10 v/v % sodium lauryl sulfate is open spread on region including intradermal injection part, and next day (8 days after treatment) 100 v/v % 7th Sense-M olive oil suspension or 100 v/v % 710N-M olive oil suspension is blockage patched to same region as second skin-sensitize test for 48 hours. In causing (22 days after treatment), 100, 20, 4, 0.8, and 0.16 v/v % ethanol suspension of 7th Sense-M or 710N-M and 100 v/v % corresponding volume BLANK ethanol solution are blockage patched for 24 hours.
Judgment is done according to judgment standard of Draize method after 24 hours and 48 hours from removal of patches.
(numbers of positive animal in group/numbers of animal in group)×100

[1] = Weight of individuals in the maximization test; assay type: in vivo, guinea pig
Text: Results by Weight of Individuals

[2] = causing conc. 0.01 w/v %, judge 24 hrs.
[3] = causing conc. 0.01 w/v %, judge 48 hrs.
[4] = causing conc. 0.1 w/v %, judge 24 hrs.
[5] = causing conc. 0.1 w/v %, judge 48 hrs.

**Q.** Which results are given for `O=[N+]([O-])c1ccc(Cl)c([N+](=O)[O-])c1` [DNCB, 1-chloro-2,4-dinitrobenzene]?
**A.** erythema evaluation point, individual animal (guinea pig; causing 0.01 w/v % DNCB, judge time 24 hrs.): 3 (4×) and 4; erythema evaluation point, individual animal (guinea pig; causing 0.01 w/v % DNCB, judge time 48 hrs.): 3 (3×) and 4 (2×); erythema evaluation point, individual animal (guinea pig; causing 0.1 w/v % DNCB, judge time 24 hrs.): 4 (4×) and 3; erythema evaluation point, individual animal (guinea pig; causing 0.1 w/v % DNCB, judge time 48 hrs.): 4; ave. eval. (average of evaluation point) (guinea pig; [2]): 3.8; positive ratio (guinea pig; [2]): 100; ave. eval. (average of evaluation point) (guinea pig; [3]): 4.0; positive ratio (guinea pig; [3]): 100; ave. eval. (average of evaluation point) (guinea pig; [4]): 4.8; positive ratio (guinea pig; [4]): 100; ave. eval. (average of evaluation point) (guinea pig; [5]): 5.2; positive ratio (guinea pig; [5]): 100; weight of individual ([1]; 8th day): 472 and 420 and 444 and 453 and 440; weight, group average ([1]; 8th day): 446; weight of individual ([1]; 15th day): 521 and 426 and 470 and 496 and 485; weight, group average ([1]; 15th day): 480; weight of individual ([1]; 22nd day): 572 and 485 and 521 and 536 and 529; weight, group average ([1]; 22nd day): 529; weight of individual ([1]; 25th day): 590 and 481 and 533 and 544 and 541; weight, group average ([1]; 25th day): 538; weight of individual ([1]; first day): 430 and 375 and 396 and 416 and 395; weight, group average ([1]; first day): 402; weight of individual ([1]; starting date of previous test): 356 and 333 and 354 and 369 and 344; weight, group average ([1]; starting date of previous test): 349
